Experimental data taken from ChEMBL document CHEMBL1136190, “Synthesis and evaluation of methyl ether derivatives of the vancomycin, teicoplanin, and ristocetin aglycon methyl esters” (2003).
Converted amounts (≈) assume the structure as drawn.

Tests used:
Type in all cases: functional
[1] = test system: Staphylococcus aureus; assay: Minimum inhibitory concentration against Staphylococcus aureus (ATCC 25923)
[2] = test system: Enterococcus faecalis; assay: Minimum inhibitory concentration against Enterococcus faecalis (VanA, BM4166)
[3] = test system: Enterococcus faecalis; assay: Minimum inhibitory concentration against Enterococcus faecalis (VanB, ATCC 51299)

| MIC [1] | MIC [2] | MIC [3] | SMILES |
| --- | --- | --- | --- |
| 0.8 µg/mL (≈ 0.681 µM) | > 100 µg/mL | 25 µg/mL (≈ 21.3 µM) | COC(=O)[C@H]1NC(=O)[C@H]2NC(=O)[C@H](NC(=O)[C@@H]3NC(=O)[C@H]4NC(=O)[C@H](NC(=O)[C@H](N)c5ccc(O)c(c5)Oc5cc4cc(O)c5C)[C@H](O)c4ccc(cc4)Oc4cc3cc(c4O)Oc3ccc(cc3)[C@H]2O)c2ccc(O)c(c2)-c2c(O)cc(O)cc21 |
| 3.2 µg/mL (≈ 2.66 µM) | > 100 µg/mL | 3.2 µg/mL (≈ 2.66 µM) | COC(=O)C1NC(=O)C2NC(=O)C(NC(=O)C3NC(=O)C4NC(=O)[C@H](NC(=O)[C@H](N)c5ccc(O)c(c5)Oc5cc4cc(O)c5C)[C@H](O)c4ccc(cc4)Oc4cc3cc(c4OC)Oc3ccc(cc3)C2O)c2ccc(O)c(c2)-c2c(OC)cc(O)cc21 (stereo partly specified) |
| 1.6 µg/mL (≈ 0.779 µM) | > 100 µg/mL | 12.5 µg/mL (≈ 6.09 µM) | Cc1c(O)cc2cc1Oc1cc(ccc1O)[C@@H](N)C(=O)N[C@H]1C(=O)N[C@@H]2C(=O)N[C@H]2C(=O)N[C@H]3C(=O)N[C@H](C(=O)N[C@@H](C(=O)O)c4cc(O)cc(O[C@H]5O[C@H](CO)[C@@H](O)[C@H](O)[C@@H]5O)c4-c4cc3ccc4O)[C@H](O[C@H]3C[C@@H](N)[C@@H](O)[C@H](C)O3)c3ccc(cc3)Oc3cc2cc(c3O[C@H]2O[C@@H](CO[C@H]3O[C@H](C)[C@@H](O)[C@H](O)[C@@H]3O)[C@H](O)[C@@H](O)[C@@H]2O[C@H]2O[C@H](CO)[C@@H](O)[C@H](O)[C@@H]2O[C@H]2O[C@H](CO)[C@@H](O)[C@@H]2O)Oc2ccc(cc2)[C@H]1O [RISTOCETIN] |

The next lines start with the compound.

| SMILES | MIC [1] | MIC [2] | MIC [3] |
| --- | --- | --- | --- |
| CN[C@H](CC(C)C)C(=O)NC1C(=O)NC(CC#N)C(=O)NC2C(=O)NC3C(=O)NC(C(=O)NC(C(=O)OC)c4cc(OC)cc(OC)c4-c4cc3ccc4OC)C(O)c3ccc(c(Cl)c3)Oc3cc2cc(c3OC)Oc2ccc(cc2Cl)[C@H]1O (stereo partly specified) | 1.6 µg/mL (≈ 1.34 µM) | 50 µg/mL (≈ 41.8 µM) | 1.6 µg/mL (≈ 1.34 µM) |
| CN[C@H](CC(C)C)C(=O)N[C@H]1C(=O)N[C@@H](CC(N)=O)C(=O)N[C@H]2C(=O)N[C@H]3C(=O)N[C@H](C(=O)N[C@H](C(=O)O)c4cc(O)cc(O)c4-c4cc3ccc4O)[C@H](O)c3ccc(c(Cl)c3)Oc3cc2cc(c3O)Oc2ccc(cc2Cl)[C@H]1O [VANCOMYCIN AGLYCON] | 0.8 µg/mL (≈ 0.699 µM) | > 100 µg/mL | 25 µg/mL (≈ 21.9 µM) |
| CN[C@H](CC(C)C)C(=O)NC1C(=O)NC(CC(N)=O)C(=O)NC2C(=O)NC3C(=O)NC(C(=O)NC(C(=O)OC)c4cc(OC)cc(OC)c4-c4cc3ccc4OC)C(O)c3ccc(c(Cl)c3)Oc3cc2cc(c3OC)Oc2ccc(cc2Cl)[C@H]1O (stereo partly specified) | 1.6 µg/mL (≈ 1.32 µM) | 50 µg/mL (≈ 41.2 µM) | 1.6 µg/mL (≈ 1.32 µM) |
| CN[C@H](CC(C)C)C(=O)N[C@H]1C(=O)N[C@@H](CC(N)=O)C(=O)N[C@H]2C(=O)N[C@H]3C(=O)N[C@H](C(=O)N[C@H](C(=O)O)c4cc(O)cc(O)c4-c4cc3ccc4O)[C@H](O)c3ccc(c(Cl)c3)Oc3cc2cc(c3O[C@@H]2O[C@H](CO)[C@@H](O)[C@H](O)[C@H]2O[C@H]2C[C@](C)(N)[C@H](O)[C@H](C)O2)Oc2ccc(cc2Cl)[C@H]1O [VANCOMYCIN] | 0.8 µg/mL (≈ 0.552 µM) | > 100 µg/mL | 25 µg/mL (≈ 17.3 µM) |
